Laboratory results: US7345070B2, “Peroxisome proliferator activated receptor agonists” (Eli Lilly and Company, priority 2000, dated 2008)

Tests used:
[1] = test system: HuapoAI transgenic mice; test: Evaluation of triglyceride and cholesterol level in HuapoAI transgenic mice; format: in vivo; conditions: Mus musculus, 168 h, human apoAI transgenic mice, 30 mg/kg oral gavage daily for 7 days; for change in vivo at 30 mg/kg: FPLC area under the curve, over mice receiving vehicle, read-out: % HDLc Increase; for inhibition in vivo at 30 mg/kg: serum 3 h after dosing, read-out: Reduction in Triglyceride Serum Level
Outline: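 Mice got daily oral gavage doses for 7 days, and blood was drawn by cardiac puncture under isoflurane 3 h after the final dose. Serum triglycerides and total cholesterol were measured colorimetrically against standard curves. VLDL, LDL and HDL cholesterol came from Superose 6 FPLC in PBS-EDTA with in-line detection, as peak areas.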

[2] = test system: huPPARα; test: Cotransfection assay in CV-1 cells, huPPARα; format: cell-based, human; conditions: GAL4 chimeric system, relative to PPARα agonist reference molecule
Outline: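 Binding: SPA displacement of tritiated PPARα or PPARγ agonist, giving IC50. Cotransfection: CV-1 cells with CMV-driven PPAR and RXRα, luciferase reporter (AOX PPRE/TK or GAL4 chimera); efficacy relative to PPARα or PPARγ reference agonists, from curve fit or at 10 μM.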

Row | SMILES | change in vivo at 30 mg/kg [1] [%] | inhibition in vivo at 30 mg/kg [1] [%] | huPPARα CTF Efficacy [2] [%]
1 | Cc1oc(-c2cccs2)nc1CCOc1ccc(CC(C)(Oc2ccc(F)cc2)C(=O)O)cc1 (stereo not shown) [Example 64, 2-(4-Fluoro-phenoxy)-2-methyl-3-{4-[2-(5-methyl-2-thiophen-2-yl-oxazol-4-yl)-ethoxy]-phenyl}-propionic acid] | 66 | 43 | 50
2 | Cc1oc(C2CCCCC2)nc1CCOc1ccc(CC(C)(Oc2ccc(F)cc2)C(=O)O)cc1 (stereo not shown) [Example 65, 3-{4-[2-(2-Cyclohexyl-5-methyl-oxazol-4-yl)-ethoxy]-phenyl}-2-(4-fluoro-phenoxy)-2-methyl-propionic acid] | 75 | 54 | 46
3 | Cc1oc(C2(C)CCCCC2)nc1CCOc1ccc(C[C@](C)(Oc2ccc(F)cc2)C(=O)O)cc1 [Example 67, (S)-2-(4-Fluoro-phenoxy)-2-methyl-3-(4-{2-[5-methyl-2-(1-methyl-cyclohexyl)-oxazol-4-yl]-ethoxy}-phenyl)-propionic acid] | 76 | 67.8 | 34
4 | Cc1oc(-c2cccs2)nc1CCOc1ccc(CC(C)(Oc2cccc(C(F)(F)F)c2)C(=O)O)cc1 (stereo not shown) [Example 71, 2-Methyl-3-{4-[2-(5-methyl-2-thiophen-2-yl-oxazol-4-yl)-ethoxy]-phenyl}-2-(3-trifluoromethyl-phenoxy)-propionic acid] | 34 | – | 142
5 | COc1cccc(OC(C)(Cc2ccc(OCCc3nc(C4CCCCC4)oc3C)cc2)C(=O)O)c1 (stereo not shown) [Example 76, 3-{4-[2-(2-Cyclohexyl-5-methyl-oxazol-4-yl)-ethoxy]-phenyl}-2-(3-methoxy-phenoxy)-2-methyl-propionic acid] | 26 | 27.1 | 63
6 | Cc1oc(-c2ccccc2)nc1CCOc1ccc(CC(C)(Oc2ccc3c(c2)OCO3)C(=O)O)cc1 (stereo not shown) [Example 78, 2-(Benzo[1,3]dioxol-5-yloxy)-2-methyl-3-{4-[2-(5-methyl-2-phenyl-oxazol-4-yl)-ethoxy]-phenyl}-propionic acid] | 95 | 64.8 | 52
7 | Cc1oc(C2CCCCC2)nc1CCOc1ccc(CC(C)(Oc2ccc3c(c2)OCO3)C(=O)O)cc1 (stereo not shown) [Example 80, 2-(Benzo[1,3]dioxol-5-yloxy)-3-{4-[2-(2-cyclohexyl-5-methyl-oxazol-4-yl)-ethoxy]-phenyl}-2-methyl-propionic acid] | 123 | 36.6 | 84
8 | Cc1oc(CCc2ccccc2)nc1CCOc1ccc(C[C@](C)(Oc2ccccc2)C(=O)O)cc1 [Example 86, (S)-2-Methyl-3-{4-[2-(5-methyl-2-phenethyl-oxazol-4-yl)-ethoxy]-phenyl}-2-phenoxy-propionic acid] | 36 | 30.1 | 24
9 | Cc1oc(-c2ccccc2)nc1CCCc1ccc(CC(C)(Oc2ccccc2)C(=O)O)s1 (stereo not shown) [Example 91, 2-Methyl-3-{5-[3-(5-methyl-2-phenyl-oxazol-4-yl)-propyl]-thiophen-2-yl}-2-phenoxy-propionic acid] | 46 | – | 47
